{
  "source": "patent EP0707593B1",
  "about": "“ORALLY ADMINISTERABLE ESTERS OF 14 ALPHA,15 ALPHA-METHYLENE-OESTRADIOL WITH AN OESTROGENIC ACTION” (Jenapharm GmbH & Co. KG, priority 1993, dated 1995)",
  "system": "adulte ovarektomierte Ratten",
  "assay": "Uterus wet weight after single oral application in adult ovariectomized rats (oral estrogenic effect, dose-response analysis)",
  "type": "in vivo",
  "details": "suspended in Myrj, 3-100 µg/T (dose refers to steroid part), uterus wet weight on day 4, Abbildungen 1 und 2",
  "source_text": "Als Vergleiche dienten Ethinylestradiol (EE) und 14α,15α-Methylen-estra-1,3,5(10)-trien-3,17β-diol (Code: J824) Die Ermittlung der Uterusfeuchtmassen nach einmaliger oraler Substanzapplikation sowie die Dosis-Wirkungsanalysen der Substanzen wurde zur Bemessung einer Estrogenwirkung herangezogen.\nSowohl Uterus als auch Vagina zeigen bei ovarektomierten Ratten eine von der Estrogendosis abhängige Gewichtszunahme. Diese ist auf eine Proliferation der Schleimhäute, erhöhte Proteinsynthese, aber auch auf eine Wassereinlagerung zurückzuführen. Für die der Erfindung zu Grunde liegenden Untersuchungen wurden adulte ovarektomierte Ratten eingesetzt. In einer kontrollierten Studie wurden Ester des 14α,15α-Methylen-estradiols auf estrogene Wirkung bei oraler Applikation gegen Ethinylestradiol(EE) und 14α,15α-Methylen-estradiol (J 824) geprüft. Die angegebenen Dosierungen beziehen sich auf den Steroidkern der Moleküle. Die Testsubstanzen wurden einmalig oral appliziert. Als Parameter einer Estrogenwirkung wurden am 4. Tag des Versuches die Uterusgewichte ermittelt (Feuchtgewichte).\nWeibliche Ratten [Stamm: BOR:WISW (SPF/Cpb)], Körpermasse zu Versuchsbeginn 200 - 240 g wurden ovarektomiert und 10 Tage nach diesem Eingriff randomisiert den Versuchsgruppen zugeordnet. Dann erfolgte die einmalige orale Applikation (Tag 1) der Prüfsubstanzen. Am 4. […]",
  "data": [
    {"smiles": "C[C@]12CC[C@@H]3c4ccc(O)cc4CC[C@H]3[C@@]13C[C@H]3C[C@@H]2O", "note": "[J824, 14α,15α-Methylen-estra-1,3,5(10)-trien-3,17β-diol]", "values": [
      {"measurement": "orale Estrogenwirkung (Uterusfeuchtmassen)", "result": "bessere estrogene Wirkung des J824 gegenüber EE"}
    ]}
  ]
}
